Source: ChEMBL document CHEMBL5055685, “Discovery of the First Potent IDO1/IDO2 Dual Inhibitors: A Promising Strategy for Cancer Immunotherapy” (J Med Chem, 2021)

Assays:
[1] = target: T1, Indoleamine 2,3-dioxygenase 2 (Homo sapiens, UniProt Q6ZQW0); assay: Inhibition of IDO2 (unknown origin) assessed as reduction in kynurenine formation using L-tryptophan as substrate by methylene blue reagent based assay
T1 sequence (Q6ZQW0 whole entry): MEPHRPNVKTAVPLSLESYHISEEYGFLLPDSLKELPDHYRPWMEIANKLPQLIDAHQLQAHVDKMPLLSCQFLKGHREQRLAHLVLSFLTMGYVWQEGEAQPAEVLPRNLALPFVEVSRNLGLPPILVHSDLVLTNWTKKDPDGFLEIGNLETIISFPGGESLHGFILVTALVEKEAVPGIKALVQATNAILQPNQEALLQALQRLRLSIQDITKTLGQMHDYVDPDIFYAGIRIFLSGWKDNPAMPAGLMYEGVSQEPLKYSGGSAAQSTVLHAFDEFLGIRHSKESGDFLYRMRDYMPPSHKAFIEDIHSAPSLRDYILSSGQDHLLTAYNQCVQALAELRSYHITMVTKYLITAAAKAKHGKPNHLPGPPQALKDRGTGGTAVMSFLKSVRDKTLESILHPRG

[2] = target: T2, Indoleamine 2,3-dioxygenase 1 (Homo sapiens, UniProt P14902); assay: Inhibition of IDO1 (unknown origin) assessed as reduction in kynurenine formation using L-tryptophan as substrate by methylene blue reagent based assay
Target sequence in this assay (P14902 whole entry): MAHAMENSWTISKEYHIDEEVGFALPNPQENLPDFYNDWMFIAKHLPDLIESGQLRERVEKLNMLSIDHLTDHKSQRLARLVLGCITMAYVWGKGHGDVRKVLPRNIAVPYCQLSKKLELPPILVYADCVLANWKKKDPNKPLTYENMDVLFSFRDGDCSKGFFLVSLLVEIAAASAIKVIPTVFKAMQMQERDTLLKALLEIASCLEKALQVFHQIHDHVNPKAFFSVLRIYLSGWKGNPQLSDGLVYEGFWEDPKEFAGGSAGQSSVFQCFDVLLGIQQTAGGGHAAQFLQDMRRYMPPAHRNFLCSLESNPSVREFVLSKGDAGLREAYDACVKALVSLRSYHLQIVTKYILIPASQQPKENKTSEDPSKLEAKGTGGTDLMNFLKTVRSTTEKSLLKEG

[3] = target: T2, Indoleamine 2,3-dioxygenase 1; assay: Inhibition of IDO1 in IFNgamma-stimulated human HeLa cells assessed as reduction in kynurenine formation measured after 48 hrs by spectrophotometry
Target sequence in this assay (P14902 whole entry): as above

[4] = target: T2, Indoleamine 2,3-dioxygenase 1
Target sequence in this assay (P14902 whole entry): as above

[5] = Inhibition of IDO1/IDO2 in IFNgamma/LPS-stimulated human PBMCs assessed as reduction in kynurenine formation pretreated with compound for 15 mins followed by IFNgamma/LPS stimulation by LC-MS/MS analysis; type: tissue-based; conditions: PBMC
[6] = target: T2, Indoleamine 2,3-dioxygenase 1; assay: Inhibition of IDO1 (unknown origin) assessed as reduction in kynurenine formation using L-tryptophan as substrate by methylene blue reagent based assay relative to control; design: concentration or dose not given beside the values; conditions: concentration not given here
Target sequence in this assay (P14902 whole entry, looked up): as the sequence (P14902 whole entry) above

[7] = target: T3, Indoleamine 2,3-dioxygenase 2 (Homo sapiens) (UniProt Q6ZQW0); assay: Inhibition of IDO2 (unknown origin) assessed as reduction in kynurenine formation using L-tryptophan as substrate by methylene blue reagent based assay relative to control; design: concentration or dose not given beside the values; conditions: concentration not given here
T3 sequence (whole entry): T1 sequence (Q6ZQW0 whole entry)

SMILES | IC50 [1] [nM] | IC50 [2] [nM] | also measured
O/N=C(\Nc1ccc(F)c(Br)c1)c1nonc1NCCn1cc(C2(O)CCCCC2)nn1 | 865 | 62 | –
OCc1cn(CCNc2nonc2/C(=N/O)Nc2ccc(F)c(Br)c2)nn1 | 794 | 77 | –
OCCc1cn(CCNc2nonc2/C(=N/O)Nc2ccc(F)c(Br)c2)nn1 | 1170 | 247 | –
CCC(C)(O)c1cn(CCNc2nonc2/C(=N/O)Nc2ccc(F)c(Br)c2)nn1 (stereo unspecified) | 958 | 53 | –
CC(C)(C)c1cn(CCNc2nonc2/C(=N/O)Nc2ccc(F)c(Br)c2)nn1 | 1870 | 132 | –
OCCCCc1cn(CCNc2nonc2/C(=N/O)Nc2ccc(F)c(Br)c2)nn1 | 1080 | 80 | –
CCOc1cc(CNC(=O)c2ncoc2-c2ccc(OC)cc2)cc(OCC)c1OCC | – | – | IC50 [3]: 6.3 nM
OCCCc1cn(CCNc2nonc2/C(=N/O)Nc2ccc(F)c(Br)c2)nn1 | 958 | 98 | –
C[C@]1([C@H](O)C[C@H]2c3c(F)cccc3-c3cncn32)CC[C@H](O)CC1 | – | – | IC50 [4]: 7 nM
CCOC(=O)N1CCC2(CC1)C[C@H](NC(=O)c1cccc3cn[nH]c13)c1cc(Br)ccc1O2 | – | – | IC50 [5]: 5.4 nM
Cc1ccc(-c2cn(CCNc3nonc3/C(=N/O)Nc3ccc(F)c(Br)c3)nn2)cc1 | – | – | inhibition [6]: 12%; inhibition [7]: 14%
CC(C)(OCCO)c1cn(CCNc2nonc2/C(=N/O)Nc2ccc(F)c(Br)c2)nn1 | 1170 | 176 | –
